Source: patent publication EP1082958A2, “5-HT1F agonists in chronic pain” (ELI LILLY AND COMPANY, priority 1996, dated 1998)

Columns and labels:
5-HT1E = target: T1, 5-HT1E (Homo sapiens, UniProt P28566); test: Radioligand binding ([3H]5-HT displacement) to cloned 5-HT1E receptor; settings: read-out: BINDING TO SEROTONIN (5-HT1) RECEPTOR SUBTYPES (Ki-nM) 5-HT1E, 4.5-5.5 nM [3H]5-HT, 37°C, Ki from IC50 by Cheng-Prusoff
T1 construct: expressed in transfected cells; host or cells: transfected Ltk- cells (by analogy 'as described supra')
Procedure: Membrane Preparation: Membranes were prepared from transfected Ltk- cells which were grown to 100% confluency. The cells were washed twice with phosphate-buffered saline, scraped from the culture dishes into 5 mL of ice-cold phosphate-buffered saline, and centrifuged at 200 x g for 5 minutes ^at 4°C. The pellet was resuspended in 2.5 mL of ice-cold Tris buffer (20 mM Tris HCl, pH=7.4 a^t […]) and homogenized with a Wheaton tissue grinder. The lysate was subsequently centrifuged at 200 x g for 5 minutes at 4°C to pellet large fragments which were discarded. The supernatant was collected and centrifuged at 40,000 x g for 20 minutes at 4°C. […] Protein concentrations were determined by the method of Bradford (Anal. Biochem., 72, 248-254 (1976)).
Radioligand Binding: [^3H-5-HT] binding was performed using slight modifications of the 5-HT1D assay conditions reported by Herrick-Davis and Titeler (J. Neurochem., 50, 1624-1631 (1988)) with the omission of masking ligands. […] Incubation times were 30 minutes for both saturation and displacement studies based upon initial investigations which determined equilibrium binding conditions. […] Binding data was analyzed by computer-assisted nonlinear regression analysis (Accufit and Accucomp, Lunden Software, Chagrin Falls, OH). […]

[1] = tested on: neuronal protein extravasation; test: Protein extravasation after electrical stimulation of the trigeminal ganglion (Evans Blue in dura); format: in vivo, Harlan Sprague-Dawley rats or guinea pigs; settings: 10 minutes before stimulation of the left trigeminal ganglion, dose inhibiting extravasation by 50%, approximated from dose-response curve, rats or guinea pigs (species not given)
Procedure: Harlan Sprague-Dawley rats (225-325 g) or guinea pigs from Charles River Laboratories (225-325 g) were anesthetized with sodium pentobarbital intraperitoneally (65 mg/kg or 45 mg/kg respectively) and placed in a stereotaxic frame (David Kopf Instruments) with the incisor bar set at - 3.5 mm for rats or -4.0 mm for guinea pigs. Following a midline sagital scalp incision, two pairs of bilateral holes were drilled through the skull (6 mm posteriorly, 2.0 and 4.0 mm laterally in rats; 4 mm posteriorly and 3.2 and 5.2 mm laterally in guinea pigs, all coordinates referenced to bregma). Pairs of stainless steel stimulating electrodes (Rhodes Medical Systems, Inc.) were lowered through the holes in both hemispheres to a depth of 9 mm (rats) or 10.5 mm (guinea pigs) from dura.
The femoral vein was exposed and a dose of the test compound was injected intravenously (1 mL/kg). Approximately 7 minutes later, a 50 mg/kg dose of Evans Blue, a fluorescent dye, was also injected intravenously. The Evans Blue complexed with proteins in the blood and functioned as a marker for protein extravasation. Exactly 10 minutes post-injection of the test compound, the left trigeminal ganglion was stimulated for 3 minutes at a current intensity of 1.0 mA (5 Hz, 4 msec duration) with a Model 273 potentiostat/ galvanostat (EG&G Princeton Applied Research).
Fifteen minutes following stimulation, the animals were killed and exsanguinated with 20 mL of saline. The top of the skull was removed to facilitate the collection of the dural membranes. The membrane samples were removed from both hemispheres, rinsed with water, and spread flat on microscopic slides. Once dried, the tissues were coverslipped with a 70% glycerol/water solution.
A fluorescence microscope (Zeiss) equipped with a grating monochromator and a spectrophotometer was used to quantify the amount of Evans Blue dye in each sample. An excitation wavelength of approximately 535 nm was utilized and the emission intensity at 600 nm was determined. The microscope was equipped with a motorized stage and also interfaced with a personal computer. This facilitated the computer-controlled movement of the stage with fluorescence measurements at 25 points (500 µm steps) on each dural sample. The mean and standard deviation of the measurements was determined by the computer.
The extravasation induced by the electrical stimulation of the trigeminal ganglion was an ipsilateral effect (i.e. occurs only on the side of the dura in which the trigeminal ganglion was stimulated). This allows the other (unstimulated) half of the dura to be used as a control. The ratio of the amount of extravasation in the dura from the stimulated side compared to the unstimulated side dura was calculated. […]

T1 sequence (P28566 whole entry, species assumed): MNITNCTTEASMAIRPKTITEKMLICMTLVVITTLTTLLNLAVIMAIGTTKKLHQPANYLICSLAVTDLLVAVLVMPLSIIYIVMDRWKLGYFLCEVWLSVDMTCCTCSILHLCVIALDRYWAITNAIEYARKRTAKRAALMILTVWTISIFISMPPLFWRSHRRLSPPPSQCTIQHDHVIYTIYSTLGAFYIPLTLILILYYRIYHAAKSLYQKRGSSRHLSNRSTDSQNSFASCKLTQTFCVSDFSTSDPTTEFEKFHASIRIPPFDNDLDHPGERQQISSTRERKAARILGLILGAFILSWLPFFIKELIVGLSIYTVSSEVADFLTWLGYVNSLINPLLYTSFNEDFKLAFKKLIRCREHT

Compound | Ki (5-HT1E) [nM] | Inhibition of Protein Extravasation, i.v. ID50 [1] [mmol/kg]
CNS(=O)(=O)Cc1ccc2[nH]cc(CCN(C)C)c2c1.O=C(O)CCC(=O)O [Compound I, 3-[2-(dimethylamino)ethyl]-N-methyl-1H-indole-5-methanesulfonamide butane-1,4-dioate (1:1)] | 2520 | 2.6e-08
O=C(O)C(=O)O.Oc1ccc2[nH]cc(C3CCNCC3)c2c1 [Compound III, 5-hydroxy-3-(4-piperidinyl)-1H-indole oxalate] | – | 8.9e-09
CCN(CC)C1CCc2cccc(Cl)c2C1.Cl (centres unmarked) [Compound IV, 8-chloro-2-diethylamino-1,2,3,4-tetrahydronaphthalene hydrochloride] | – | 1.2e-07
CN(C)C1CCc2[nH]c3ccc(O)cc3c2C1 (centres unmarked) [Compound V, 6-hydroxy-3-dimethylamino-1,2,3,4-tetrahydrocarbazole] | – | 8.7e-09
